In ChEMBL document CHEMBL4396953, “Synthesis and highly potent anti-inflammatory activity of licofelone- and ketorolac-based 1-arylpyrrolizin-3-ones” (2019):

How the values were obtained:
Type in all cases: functional
Mus musculus [1] = experiment: Antiinflammatory activity in CD1 mouse model of TPA-induced ear edema assessed as ear edema formation at 2 mg/ear administered topically after TPA challenge for 30 mins and measured after 6 hrs post administration (reference value: 17.61 to 19.82 mg)
Mus musculus [2] = experiment: Antiinflammatory activity in CD1 mouse model of TPA-induced ear edema assessed as inhibition of ear edema at 2 mg/ear administered topically after TPA challenge for 30 mins and measured after 6 hrs post administration relative to control
Mus musculus [3] = experiment: Antiinflammatory activity in CD1 mouse model of TPA-induced ear edema assessed as reduction in ear edema formation administered topically after TPA challenge for 30 mins and measured after 6 hrs post administration
Mus musculus [4] = experiment: Antiinflammatory activity in CD1 mouse model of TPA-induced ear edema assessed as ear edema formation at 1 mg/ear administered topically after TPA challenge for 30 mins and measured after 6 hrs post administration (reference value: 17.61 to 19.82 mg)
Mus musculus [5] = experiment: Antiinflammatory activity in CD1 mouse model of TPA-induced ear edema assessed as ear edema formation at 0.5 mg/ear administered topically after TPA challenge for 30 mins and measured after 6 hrs post administration (reference value: 17.61 to 19.82 mg)
Mus musculus [6] = experiment: Antiinflammatory activity in CD1 mouse model of TPA-induced ear edema assessed as inhibition of ear edema at 0.5 mg/ear administered topically after TPA challenge for 30 mins and measured after 6 hrs post administration relative to control
Mus musculus [7] = experiment: Antiinflammatory activity in CD1 mouse model of TPA-induced ear edema assessed as inhibition of ear edema at 1 mg/ear administered topically after TPA challenge for 30 mins and measured after 6 hrs post administration relative to control
J774.A1 = experiment: Antiinflammatory activity in mouse J774A.1 cells LPS-induced NO production at 25 ug/ml incubated for 2 hrs followed by LPS-stimulation measured after 24 hrs by Griess assay relative to control

SMILES	Activity (Mus musculus [1]) [mg]	inhibition (INH) (Mus musculus [2])	Activity (Mus musculus [3])	ED50 (Mus musculus [3]) [mg]	Activity (Mus musculus [4]) [mg]	Activity (Mus musculus [5]) [mg]	inhibition (INH) (Mus musculus [6])	inhibition (INH) (Mus musculus [7])	Activity (J774.A1) [%]
COC(=O)Cn1cccc1C=O	11.87	33.73%	–	–	–	–	–	–	–
COC(=O)C1=C(c2ccc(Br)cc2)c2cccn2C1=O	11.72	40.88%	Dose-dependent effect	3.23	13.93	18.14	8.46%	29.73%	–
COC(=O)/C(=C\N(C)C)n1cccc1C=O	14.09	21.37%	–	–	–	–	–	–	–
COc1ccc2c(c1)c(CC(=O)O)c(C)n2C(=O)c1ccc(Cl)cc1 [INDOMETHACIN]	6.99 to 10.49	41.47 - 61.1%	Dose-dependent effect	1.07 to 1.29	9.01 to 9.44	1.22 to 11.51	32.12 - 41.44%	41.97 - 52.37%	64.63
COC(=O)C1=C(c2ccc([N+](=O)[O-])cc2)c2cccn2C1=O	9.2	53.43%	Dose-dependent effect	1.86	15.04	18.13	8.52%	24.1%	–
